# Data as given in patent publication US9034403B2, “Yeast extract containing γ-Glu-X or γ-Glu-X-Gly and a method for producing the same” (AJINOMOTO CO., INC., priority 2010, dated 2015).
# Numbered stars: 1 amine (or outer) side, 2 acyl side, 3 side chain; on linkers, the order of the positions; unused ones are H or OH. Square brackets hold non-standard residues; d marks the D form. Peptide text beside a SMILES is read from it. γGlu = O=C(O)[C@H](CCC(=O)[*:2])N[*:1]; Nva = CCC[C@H](N)C(=O)O
# Legend:
# [1] = tested on: Saccharomyces cerevisiae S288C strain; assay: Addition of peptide to medium of S288C strain; peptide content in dry cells and in extract by LC-MS/MS; format: cell-based
# Procedure: Absorbance of the obtained culture broth was measured, the culture broth was inoculated into SD medium (400 ml in a 2 L-volume conical flask with baffle fins, a pluratity of flasks) so that OD660 was 0.01 at the start of the culture (absorbance was measured by using DU640 SPECTROPHTOMETER, BECKMAN COULTER), and culture was performed at 30° C. for 19 hours with shaking by rotation at a velocity of 120 rpm. From the obtained culture broth, 400 OD units of the cells (1 OD unit is defined as cells contained in 1 ml of culture broth of which OD660 is 1) were collected by centrifugal separation. The supernatant was removed as much as possible, and the residual cells were suspended in 45 ml of Milli-Q water. The cells were collected again by centrifugal separation, and resuspended in 45 ml of Milli-Q water. By repeating this operation 3 times in total, the medium was completely removed from the cells. The washed cells were suspended in about 1.5 ml of Milli-Q water, and the suspension was heated at 70° C. for 10 minutes. By this step, the extractable components contained in the cells were extracted. Then, the extract and the cell residue were separated by centrifugation.
# Cell debris were removed from the extract using a centrifugal filtration membrane of 10 kDa (Amicon Ultra—0.5 mL 10K, MILLIPORE, Catalogue Number UFC501096)), the obtained fraction was derivatized with the AQC reagent in the same manner as that used in Example 1, and γ-Glu-Val-Gly and γ-Glu-Val were measured by LC-MS/MS. Separately, the amount of GSH in the cells was measured in a conventional manner (GSH in the extract was derivatized by using a fluorescence reagent ABD-F that binds to thiol group, separated and quantified by HPLC). Furthermore, dry cell weight was measured after the washed cells were dried at 104° C. for 4 hours. From the amounts of γ-Glu-Val-Gly and γ-Glu-Val in the extract prepared from the cells that was contained in a certain volume of culture broth and dry cell weight measured as described above, the amount of these peptides based on weight of dried cells was calculated. […]
# One loop of the S288C strain was inoculated into SD medium (50 ml in a 500 ml-volume Sakaguchi flask), and cultured at 30° C. for 24 hours with shaking at a velocity of 120 rpm. Absorbance of the obtained culture broth was measured, the culture broth was inoculated into SD medium (400 ml in a 2 L-volume conical flask with baffle fins, two or more flasks) so that OD660 was 0.01 at the start of the culture, and culture was performed at 30° C. for 19 hours with shaking by rotation at a velocity of 120 rpm. After 19 hours, γ-Glu-Val-Gly aqueous solutions of various concentrations were added to obtain predetermined concentrations, and the culture was continued for 1 hour. Using these culture broths, the γ-Glu-Val-Gly content in dry cells was calculated in the same manner as in Example 2. Furthermore, the solid content of the extract was calculated, and the amount of γ-Glu-Val-Gly in the solid content was also calculated. […]
# The cells were collected from the total culture broth, and washed in the same manner as that of Example 2. The washed cells in an amount of 400 OD units were suspended in 1.5 ml of Milli-Q water. This suspension was maintained at 70° C. for 10 minutes to produce an extract from the yeast cells. Furthermore, the suspension was centrifuged to remove the cell residues and thereby collect only the extract. The γ-Glu-Val-Gly concentration of this extract (extract of addition experiment) was measured to be about 300 ppm, and solid content was about 1%. The γ-Glu-Val-Gly concentration in an extract prepared in the same way but without adding γ-Glu-Val-Gly to the culture broth (extract of no addition experiment) was below the quantitation limit, and solid content was about 1%.
# One loop of the S288C strain was inoculated into SD medium (50 ml in a 500 ml-volume Sakaguchi flask), and cultured at 30° C. for 24 hours with shaking at a velocity of 120 rpm. […]
# [2] = tested on: S288C PADH1-HGT1 (Hgt1p overproducing strain) and S288C; assay: Peptide uptake of Hgt1p overproducing strain and parental strain S288C, intracellular content on dry weight cell; format: cell-based, Saccharomyces cerevisiae; settings: S288C PADH1-HGT1; γ-Glu-nVal-Gly 100 ppm added to the medium
# Procedure: One loop of the S288C strain was inoculated into SD medium (50 ml in a 500 ml-volume Sakaguchi flask), and cultured at 30° C. for 24 hours with shaking at a velocity of 120 rpm. Absorbance of the obtained culture broth was measured, the culture broth was inoculated into SD medium (400 ml in a 2 L-volume conical flask with baffle fins, two or more flasks) so that OD660 was 0.01 at the start of the culture, and culture was performed at 30° C. for 19 hours with shaking by rotation at a velocity of 120 rpm. After 19 hours, γ-Glu-Val-Gly aqueous solutions of various concentrations were added to obtain predetermined concentrations, and the culture was continued for 1 hour. Using these culture broths, the γ-Glu-Val-Gly content in dry cells was calculated in the same manner as in Example 2. Furthermore, the solid content of the extract was calculated, and the amount of γ-Glu-Val-Gly in the solid content was also calculated.
# The S288C PADH1-HGT1, Hgt1p overproducing strain obtained in Example 12, and its parental strain S288C, were evaluated for their ability to take up γ-Glu-Val-Gly in the same manners as described in Example 4. The amount of γ-Glu-Val-Gly added into the medium was 100 ppm as a final concentration. As a result, intracellular content of γ-Glu-Val-Gly in S288C on the dry weight cell was about 0.9%, but intracellular content of γ-Glu-Val-Gly in S288C PADH1-HGT1 on the dry weight cell was about 4.9%.
# S288C PADH1-HGT1, Hgt1p overproducing strain obtained in Example 12, and its parental strain S288C were evaluated for their γ-Glu-nVal-Gly uptake abilities in the same manners as described in Example 4 and Example 13. The amount of γ-Glu-nVal-Gly added to the medium was 100 ppm as a final concentration.
# [3] = tested on: GSH1 overexpressing strain AG1; assay: Addition of nVal to GSH1 overexpressing strain AG1, γ-Glu-nVal content; format: cell-based, Saccharomyces cerevisiae; settings: for γ-Glu-nVal content: culture continued 1 hour
# Procedure: Then, this AG1 strain was cultivated in SD medium supplemented with nVal. More specifically, one loop of the AG1 strain was inoculated into SD medium (50 ml in a 500 ml-volume Sakaguchi flask), and cultured at 30° C. for 24 hours with shaking at a velocity of 120 rpm. Absorbance of the obtained culture broth was measured, and the culture broth was inoculated into SDP medium (400 ml in a 2 L-volume conical flask with baffle fins, two or more flasks) so that OD660 was 0.01 at the start of the culture, and culture was performed at 30° C. for 23 hours with shaking by rotation at a velocity of 120 rpm. After 23 hours, nVal solution was added to a final concentration of 10 ppm or 100 ppm, and the cultures were continued for 1 hour. Then, the amount of γ-Glu-nVal was measured in the same manner described in the experimental example 15. The γ-Glu-nVal content was 0.07% when 10 ppm of nVal was added to the medium and the γ-Glu-nVal content was 0.37% when 100 ppm of nVal was added to the medium. Then, yeast extract containing γ-Glu-nVal was prepared from the broth culture cultivated with 100 ppm nVal basically in the same manner as described in Example 16. This yeast extract contained 1.44% γ-Glu-nVal at the dry matter base. This yeast extract would give strong kokumi for initial and middle taste from its character.
# [4] = tested on: S288C, Y3560 and YEp24-PTDH3-GSH2 strains; assay: Influence of YEp24-PTDH3-GSH2 on γ-EV to γ-EVG conversion; format: cell-based, Saccharomyces cerevisiae; settings: 18 hours
# Procedure: Each of the S288C ura3Δ227/YEp24-PTDH3-GSH2, Y3560/YEp24-PTDH3-GSH2, S288C and Y3560 strains, was cultivated in 50-ml tubes containing 10 ml of SD medium with 100 ppm γ-Glu-Val as a final concentration. For Y3560 strain medium was also supplemented with uracil (20 mg/L). Tubes were inoculated by overnight culture of corresponding strain at initial OD600=0.01, and placed in rotation shaker at 240 rpm, 30° C. for 18 hours. Then cells from 2 ml of broth culture were harvested by centrifugation, and were washed by 1 ml of milliQ water three times. Then washed cells were suspended in 1 ml of milliQ and were incubated at 70° C. for 10 min with a water bath to extract intracellular materials. After cell debris and the extract were separated by centrifugation, aqueous phase was transferred to clean vial and then the vial was vacuum-dried. Thus the dried extract was prepared. Then γ-Glu-Val-Gly in the dried extract was measured with LC-MS/MS analysis as it is described in example 12.
# [5] = tested on: GSH2 overexpressing strain PG2 and WT strain; assay: Addition of γ-Glu-Val to GSH2 overexpressing strain PG2 and WT strain, γ-Glu-Val-Gly content; format: cell-based, Saccharomyces cerevisiae
# Procedure: GSH2 overexpressing strain PG2 was constructed basically in the same manner as described in Example 10 except that AJ14956 described in Example 19 was used instead of ura3Δ0 from S288C. As a control, WT strain was obtained by returning the deleted URA3 gene into wild type gene from AJ14956 in the same manner described in Example 10 and Example 19.
# One loop of the WT strain or PG2 strain was inoculated into SD medium (50 ml in a 500 ml-volume Sakaguchi flask), and cultured at 30° C. for 24 hours with shaking at a velocity of 120 rpm. Absorbance of the obtained culture broth was measured, and the culture broth was inoculated into the SD medium supplemented with various concentrations of γ-Glu-Val (400 ml in a 2 L-volume conical flask with baffle fins, two or more flasks) so that OD660 was 0.01 at the start of the culture, and culture was performed at 30° C. with shaking by rotation at a velocity of 120 rpm until OD660 reached to the predetermined value. Then, the amount of γ-Glu-Val-Gly in dry cells and the solid content of the extracted extract were calculated in the same manner described previously. As shown in the results, PG2, a GSH2 overexpressing strain, took up γ-Glu-Val from the medium and converted it into γ-Glu-Val-Gly in the cell.
# [6] = 25 ppm γ-Glu-Val added to medium after 19 hours, culture continued 1 hour
# [7] = 100 ppm γ-Glu-Val added to medium after 19 hours, culture continued 1 hour
# [8] = 200 ppm γ-Glu-Val added to medium after 19 hours, culture continued 1 hour
# [9] = γ-Glu-Val 100 ppm added to SD medium in advance, culture 24 hours
# [10] = PG2 strain, γ-Glu-Val in the medium 100 ppm, CT 21 hr
# [11] = PG2 strain, γ-Glu-Val in the medium 500 ppm, CT 21 hr
# [12] = WT strain, γ-Glu-Val in the medium 100 ppm, CT 19 hr
# [13] = WT strain, γ-Glu-Val in the medium 500 ppm, CT 19 hr
compound,measurement,setting,value
CCC[C@H](NC(=O)CC[C@H](N)C(=O)O)C(=O)O [γ-Glu-nVal],γ-Glu-nVal content in the dry cell,[1]; γ-Glu-nVal added into the medium at 10 ppm,about 0.03%
same,γ-Glu-nVal content in the dry cell,[1]; γ-Glu-nVal added into the medium at 100 ppm,about 0.13%
CCC[C@H](NC(=O)CC[C@H](N)C(=O)O)C(=O)NCC(=O)O [γ-Glu-nVal-Gly] (γGlu-[Nva]-Gly-OH),intracellular content of γ-Glu-nVal-Gly on the dry weight cell,[2],about 2.84%
same,γ-Glu-nVal-Gly concentration of extract,"[1]; 50 ppm γ-Glu-nVal-Gly added after 19 hours, culture continued 1 hour, 400 OD units in 1.5 ml, solid content about 1%",about 100 ppm
same,γ-Glu-nVal-Gly content in the dry cell,[1]; γ-Glu-nVal-Gly added into the medium at 10 ppm,about 0.07%
same,γ-Glu-nVal-Gly content in the dry cell,[1]; γ-Glu-nVal-Gly added into the medium at 100 ppm,about 0.09%
"CCC[C@H](N)C(=O)O [nVal, norvaline]",γ-Glu-nVal content,[3]; 10 ppm of nVal added after 23 hours,0.07%
same,γ-Glu-nVal content,[3]; 100 ppm of nVal added after 23 hours,0.37%
same,γ-Glu-nVal in yeast extract at the dry matter base,[3]; yeast extract from broth culture cultivated with 100 ppm nVal,1.44%
CC(C)[C@H](NC(=O)CC[C@H](N)C(=O)O)C(=O)O [γ-Glu-Val],γ-EVG,"[4]; strain S288C ura3Δ227/YEp24-PTDH3-GSH2, 100 ppm γ-Glu-Val in SD medium",705 μg 1^−1 OD600^−1
same,γ-EVG,"[4]; strain S288C, 100 ppm γ-Glu-Val in SD medium",6 μg 1^−1 OD600^−1
same,γ-EVG,"[4]; strain Y3560/YEp24-PTDH3-GSH2, 100 ppm γ-Glu-Val in SD medium",2039 μg 1^−1 OD600^−1
same,γ-EVG,"[4]; strain Y3560, 100 ppm γ-Glu-Val in SD medium with uracil",110 μg 1^−1 OD600^−1
same,γ-Glu-Val content in dry cells,[1]; [6],1468 ppm
same,γ-Glu-Val content in solid content of extract,[1]; [6],8491 ppm
same,γ-Glu-Val content in dry cells,[1]; [7],6369 ppm
same,γ-Glu-Val content in solid content of extract,[1]; [7],27599 ppm
same,γ-Glu-Val content in dry cells,[1]; [8],10930 ppm
same,γ-Glu-Val content in solid content of extract,[1]; [8],49474 ppm
same,γ-Glu-Val present in dry cells,[1]; [9],7171 ppm
same,γ-Glu-Val-Gly present in dry cells,[1]; [9],20 ppm
same,γ-Glu-Val-Gly content in dry cells,[5]; [10],81 ppm
same,γ-Glu-Val-Gly content in solid content of extract,[5]; [10],384 ppm
same,γ-Glu-Val-Gly content in dry cells,[5]; [11],123 ppm
same,γ-Glu-Val-Gly content in solid content of extract,[5]; [11],585 ppm
same,γ-Glu-Val-Gly content in dry cells,[5]; [12],7 ppm
same,γ-Glu-Val-Gly content in solid content of extract,[5]; [12],29 ppm
same,γ-Glu-Val-Gly content in dry cells,[5]; [13],7 ppm
same,γ-Glu-Val-Gly content in solid content of extract,[5]; [13],29 ppm
